Data reported in patent publication US6589993B2, “Treating vancomycin-intermediates and multiresistant staphylococci infection with thiamphenicol or a salt thereof” (Zambon Group S.p.A., priority 2000, dated 2003).
In brackets after ≈: the same amount, converted by molar mass. Like-named read-outs stand apart in the source and are kept apart here.

Tests used:
Staphylococci = conditions: toward strains of Staphylococci; Kayser et al. 1974; cited from earlier work
[1] = system: S. aureus Met-R multiresistant strains; assay: MIC determination (NCCLS broth microdilution), methicillin-resistant multiresistant S. aureus strains; format: cell-based, Staphylococcus aureus; conditions: for MIC: antibiotype Oxa, Ery, read-out: MIC
Procedure, shortened: (§1)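 NCCLS broth microdilution in cation-supplemented Mueller-Hinton broth, final inoculum 5×10^5 from exponential-phase bacteria; 2% NaCl added for methicillin testing. MIC taken as lowest concentration preventing visible growth after 18–24 h at 37 °C, with S. aureus ATCC 29213 as QC strain.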

[2] = system: S. aureus vancomycin-intermediates (VISA) Met-R strains; assay: MIC determination (NCCLS broth microdilution), VISA Met-R strains; format: cell-based, Staphylococcus aureus; conditions: for MIC: antibiotype Oxa, Cip, Clin, Ery
Procedure, shortened: as §1

## CS(=O)(=O)c1ccc([C@@H](O)[C@@H](CO)NC(=O)C(Cl)Cl)cc1 [Thiamphenicol, thiamphenicol]
Staphylococci
  in vitro activity relative to chloramphenicol (times less active): 2 to 4 times
[1]; S. aureus (50) Met-R, NCCLS (1999) breakpoints
  % susceptible at breakpoint: 66%
[1]; Staphylococcus aureus, Strain 1, Cip, Clin, Gm
  MIC: 8 µg/mL (≈ 22.5 µM)
[1]; Staphylococcus aureus, Strain 2, Clin, Fos
  MIC: > 64 µg/mL
[1]; Staphylococcus aureus, Strain 3, Cip, Clin, Gm
  MIC: 16 µg/mL (≈ 44.9 µM)
[1]; Staphylococcus aureus, Strain 4, Cip, Gm
  MIC: 8 µg/mL (≈ 22.5 µM)
[1]; Staphylococcus aureus, Strain 5, Cip, Clin
  MIC: > 64 µg/mL
[1]; Staphylococcus aureus, Strain 6, Clin, Gm
  MIC: > 64 µg/mL
[1]; Staphylococcus aureus, Strain 7, Cip, Gm
  MIC: 16 µg/mL (≈ 44.9 µM)
[1]; Staphylococcus aureus, Strain 8, Cip, Clin
  MIC: > 64 µg/mL
[1]; Staphylococcus aureus, Strain 9, Cip, Clin, Gm
  MIC: 8 µg/mL (≈ 22.5 µM)
[1]; Staphylococcus aureus, Strain 10, Cip, Clin, Gm
  MIC: 4 µg/mL (≈ 11.2 µM)
[1]; Staphylococcus aureus, Strain 11, Clin, Rif
  MIC: > 64 µg/mL
[1]; Staphylococcus aureus, Strain 12, Cip, Clin
  MIC: > 64 µg/mL
[1]; Staphylococcus aureus, Strain 13, Cip, Clin
  MIC: 16 µg/mL (≈ 44.9 µM)
[1]; Staphylococcus aureus, Strain 14, Clin, Cip
  MIC: 16 µg/mL (≈ 44.9 µM)
[1]; Staphylococcus aureus, Strain 15, Cip, Clin, Gm
  MIC: 16 µg/mL (≈ 44.9 µM)
[1]; Staphylococcus aureus, Strain 16, Cip, Clin
  MIC: 8 µg/mL (≈ 22.5 µM)
[1]; Staphylococcus aureus, Strain 17, Cip, Clin
  MIC: 16 µg/mL (≈ 44.9 µM)
[1]; Staphylococcus aureus, Strain 18, Cip, Clin, Gm
  MIC: > 64 µg/mL
[1]; Staphylococcus aureus, Strain 19, Cip, Clin, Gm
  MIC: 16 µg/mL (≈ 44.9 µM)
[1]; Staphylococcus aureus, Strain 20, Cip, Clin, Gm
  MIC: > 64 µg/mL
[1]; Staphylococcus aureus, Strain 21, Cip, Clin, Gm
  MIC: > 64 µg/mL
[1]; Staphylococcus aureus, Strain 22, Cip, Clin
  MIC: 16 µg/mL (≈ 44.9 µM)
[1]; Staphylococcus aureus, Strain 23, Cip, Clin, Gm
  MIC: > 64 µg/mL
[1]; Staphylococcus aureus, Strain 24, Cip, Clin, Gm
  MIC: > 64 µg/mL
[1]; Staphylococcus aureus, Strain 25, Cip, Clin, Gm
  MIC: 16 µg/mL (≈ 44.9 µM)
[1]; Staphylococcus aureus, Strain 26, Cip, Clin, Fos, Gm
  MIC: 16 µg/mL (≈ 44.9 µM)
[1]; Staphylococcus aureus, Strain 27, Cip, Clin, Fos, Gm
  MIC: 16 µg/mL (≈ 44.9 µM)
[1]; Staphylococcus aureus, Strain 28, Cip, Clin, Gm
  MIC: > 64 µg/mL
[1]; Staphylococcus aureus, Strain 29, Clin, Fos
  MIC: 16 µg/mL (≈ 44.9 µM)
[1]; Staphylococcus aureus, Strain 30, Cip, Clin, Gm, SXT, Dox
  MIC: 16 µg/mL (≈ 44.9 µM)
[1]; Staphylococcus aureus, Strain 31, Cip, Clin, Fox, Gm
  MIC: 16 µg/mL (≈ 44.9 µM)
[1]; Staphylococcus aureus, Strain 32, Cip, Clin, Gm, SXT, Rif
  MIC: > 64 µg/mL
[1]; Staphylococcus aureus, Strain 33, Cip, Clin, Gm
  MIC: > 64 µg/mL
[1]; Staphylococcus aureus, Strain 34, Cip, Clin, Gm
  MIC: > 64 µg/mL
[1]; Staphylococcus aureus, Strain 35, Cip, Clin, Gm
  MIC: 16 µg/mL (≈ 44.9 µM)
[1]; Staphylococcus aureus, Strain 36, Cip, Clin, Fos
  MIC: 16 µg/mL (≈ 44.9 µM)
[1]; Staphylococcus aureus, Strain 37, Cip, Clin, Fos, Gm
  MIC: 16 µg/mL (≈ 44.9 µM)
[1]; Staphylococcus aureus, Strain 38, Cip, Gm
  MIC: 8 µg/mL (≈ 22.5 µM)
[1]; Staphylococcus aureus, Strain 39, Cip, Clin, Fos, Gm
  MIC: 16 µg/mL (≈ 44.9 µM)
[1]; Staphylococcus aureus, Strain 40, Cip, Clin, Gm
  MIC: 16 µg/mL (≈ 44.9 µM)
[1]; Staphylococcus aureus, Strain 41, Cip, Clin
  MIC: 16 µg/mL (≈ 44.9 µM)
[1]; Staphylococcus aureus, Strain 42, Cip, Clin, Gm
  MIC: 8 µg/mL (≈ 22.5 µM)
[1]; Staphylococcus aureus, Strain 43, Cip, Clin, Gm
  MIC: 16 µg/mL (≈ 44.9 µM)
[1]; Staphylococcus aureus, Strain 44, Cip, Clin, Gm, Rif, Dox
  MIC: 16 µg/mL (≈ 44.9 µM)
[1]; Staphylococcus aureus, Strain 45, Cip, Clin, Gm, Rif, Dox, Fos
  MIC: 16 µg/mL (≈ 44.9 µM)
[1]; Staphylococcus aureus, Strain 46, Clin, Fos
  MIC: 16 µg/mL (≈ 44.9 µM)
[1]; Staphylococcus aureus, Strain 47, Cip, Clin, Gm
  MIC: 8 µg/mL (≈ 22.5 µM)
[1]; Staphylococcus aureus, Strain 48, Cip, Clin
  MIC: > 64 µg/mL
[1]; Staphylococcus aureus, Strain 49, Cip, Gm
  MIC: 16 µg/mL (≈ 44.9 µM)
[1]; Staphylococcus aureus, Strain 50, Cip, Clin, Gm, Rif, Dox
  MIC: > 64 µg/mL
[1]; Staphylococcus aureus, S. aureus (50) Met-R, read-out: MIC 50%
  MIC50: 16 µg/mL (≈ 44.9 µM)
[1]; Staphylococcus aureus, S. aureus (50) Met-R, read-out: MIC 90%
  MIC90: > 64 µg/mL
[1]; VISA and multiresistant Staphylococcus aureus strains, in vitro
  activity (MIC) compared with cloramphenicol: comparable to that as of cloramphenicol
[2]; Staphylococcus aureus, Strain 51 VISA, read-out: MIC
  MIC: 16 µg/mL (≈ 44.9 µM)
[2]; Strain 52 VISA
  MIC: 16 µg/mL (≈ 44.9 µM)
[2]; VISA (2) Met-R
  MIC Range: 16 µg/mL (≈ 44.9 µM)
[2]; VISA (2) Met-R, NCCLS (1999) breakpoints
  % susceptible at breakpoint: 100%
